Where “and” joins values, the source holds several entries; their conditions need not be identical. Identical values can stand only once. Counter-ions that a name gives are not always drawn. Like-named read-outs stand apart in the source and are kept apart here.
Test system: NRG1-ERBB4 signaling
Assay: Nrg1-ERBB4-PIK3R1 split TEV co-culture compound screen of the NIH Clinical Collection
Assay type: cell-based, human
[1] = NIH Clinical Collection NCC-003 raw data, compounds ranked by Z-score, 'flagged' given instead of a Z-score
[2] = compound screen of the NIH Clinical Collection, sheet raw data NCC-003, compounds ranked by Z-score
[3] = compounds at 10 μM, 24 h, PC12 split TEV assay cells co-cultured with Nrg1-expressing PC12 cells, analysed with cellHTS2

| Compound | Z-SCORE [2] | Z-SCORE [3] | further results |
| --- | --- | --- | --- |
| CCC(COC(=O)c1cc(OC)c(OC)c(OC)c1)(c1ccccc1)N(C)C.O=C(O)/C=C\C(=O)O (centres unmarked) [TRIMEBUTINE MALEATE] | – | – | Z-SCORE [1]: -1.14 |
| CN(C)CCN(Cc1ccccc1)c1ccccn1 [TRIPELENNAMINE HYDROCHLORIDE] | 0.58 | – | – |
| CC(C)[C@]12O[C@H]1[C@@H]1O[C@]13[C@]1(O[C@H]1C[C@H]1C4=C(CC[C@@]13C)C(=O)OC4)[C@@H]2O [TRIPTOLIDE] | – | – | Z-SCORE [1]: flagged |
| CN1[C@@H]2CC[C@H]1C[C@@H](OC(=O)c1c[nH]c3ccccc13)C2 [TROPISETRON HCl] | 0.72 | – | – |
| COc1cc(C(=O)NC2CCCNC2)cc(OC)c1OC (centres unmarked) [TROXIPIDE] | -0.33 | – | – |
| c1ccc2c3c([nH]c2c1)CNCC3 [TRYPTOLINE] | 0.19 | – | – |
| CC/C(=C(\c1ccccc1)c1ccc(OCCN(C)C)cc1)c1ccccc1 [Tamoxifen, reference compound] | – | 1.48 | – |
| CC[C@H]1OC(=O)[C@H](C)C(=O)[C@H](C)[C@@H](O[C@@H]2O[C@H](C)C[C@H](N(C)C)[C@H]2O)[C@](C)(OC)C[C@@H](C)C(=O)[C@H](C)[C@H]2N(CCCCn3cnc(-c4cccnc4)c3)C(=O)O[C@]12C [Telithromycin, reference compound] | 3.13 | 3.13 | – |
| COc1cc2nc(N3CCN(C(=O)C4CCCO4)CC3)nc(N)c2cc1OC (centres unmarked) [Terazosin, reference compound] | -0.8 | -1.96 | – |
| CC(C)(C)NCC(O)c1cc(O)cc(O)c1 (centres unmarked) [Terbutaline Sulfate, reference compound] | – | 0.15 | – |
| C[C@]12CC[C@H]3[C@@H](CCC4=CC(=O)CC[C@@]43C)[C@@H]1CC[C@@H]2O [Testosterone, reference compound] | – | – | Z-SCORE: 0.79 and 0.91 |
| O=C1CCC(N2C(=O)c3ccccc3C2=O)C(=O)N1 (centres unmarked) [Thalidomide, reference compound] | – | -0.61 | – |
| Cn1c(=O)c2[nH]cnc2n(C)c1=O [Theophylline, reference compound] | – | 2.57 | – |
| Clc1ccc2nsnc2c1NC1=NCCN1 [Tizanidine hydrochloride, reference compound] | – | -0.96 | – |
| CCCCNC(=O)NS(=O)(=O)c1ccc(C)cc1 [Tolbutamide, reference compound] | – | 0.32 | – |
| CC[C@@]1(O)C(=O)OCc2c1cc1n(c2=O)Cc2cc3c(CN(C)C)c(O)ccc3nc2-1 [Topotecan HCl, reference compound] | 7.97 | 7.97 | – |
| COc1cccc(C2(O)CCCCC2CN(C)C)c1 (centres unmarked) [Tramadol] | -0.17 | – | – |
| Nc1nc(N)c2nc(-c3ccccc3)c(N)nc2n1 [Triamterene, reference compound] | – | 0.78 | – |
| Oc1cc(Cl)ccc1Oc1ccc(Cl)cc1Cl [Triclosan, reference compound] | – | flagged | – |
| NC(=O)N1c2ccccc2CC(=O)c2ccccc21 [Trileptal] | 0.62 | – | – |

| Compound | Z-SCORE [2] | Z-SCORE [3] | further results |
| --- | --- | --- | --- |
| COc1cc(Cc2cnc(N)nc2N)cc(OC)c1OC [Trimethoprim, reference compound] | – | 0.28 | – |
| c1ccc2c(c1)CCCC2C1=NCCN1 (centres unmarked) [Tyzine, reference compound] | – | 0.46 | – |
| COc1ccccc1N1CCN(CCCNc2cc(=O)n(C)c(=O)n2C)CC1 [URAPIDIL HYDROCHLORIDE] | 0.51 | – | – |
| C[C@H](CCC(=O)O)[C@H]1CC[C@H]2[C@@H]3[C@@H](O)C[C@@H]4C[C@H](O)CC[C@]4(C)[C@H]3CC[C@]12C [URSODEOXYCHOLIC ACID, reference compound] | – | -1.5 | – |
| CC(C[N+](C)(C)C)OC(N)=O (centres unmarked) [Urecholine, reference compound] | – | -0.94 | – |
| CC(C)[C@H](N)C(=O)OCCOCn1cnc2c(=O)[nH]c(N)nc21 [VALACICLOVIR HYDROCHLORIDE] | 0.49 | – | – |
| Cc1onc(-c2ccccc2)c1-c1ccc(S(N)(=O)=O)cc1 [VALDECOXIB] | 0.19 | – | – |
| CC(=O)O[C@H]1C[C@@H]2CC[C@@H]3[C@H](CC[C@@]4(C)[C@H]3C[C@H]([N+]3(C)CCCCC3)[C@@H]4OC(C)=O)[C@@]2(C)C[C@@H]1N1CCCCC1 [VECURONIUM BROMIDE] | 0.97 | – | – |
| COc1ccc(C(CN(C)C)C2(O)CCCCC2)cc1 (centres unmarked) [VENLAFAXINE HCl] | 0.54 | – | – |
| CC[C@]1(O)C[C@H]2CN(CCc3c([nH]c4ccccc34)[C@@](C(=O)OC)(c3cc4c(cc3OC)N(C=O)[C@H]3[C@@](O)(C(=O)OC)[C@H](OC(C)=O)[C@]5(CC)C=CCN6CC[C@]43[C@@H]65)C2)C1 [VINCRISTINE SULFATE] | – | – | Z-SCORE [1]: flagged |
| CC[C@]1(O)C[C@@H]2CN(CCc3c([nH]c4ccccc34)[C@@](C(=O)OC)(c3cc4c(cc3OC)N(C)[C@H]3[C@@](O)(C(N)=O)[C@H](O)[C@]5(CC)C=CCN6CC[C@]43[C@@H]65)C2)C1 [VINDESINE SULFATE] | – | – | Z-SCORE [1]: flagged |
| C[C@@H](c1ncncc1F)[C@](O)(Cn1cncn1)c1ccc(F)cc1F [VORICONAZOLE] | -0.06 | – | – |
| CCCC(CCC)C(=O)O [Valproic Acid, reference compound] | – | -1.05 | – |
| CCCc1nc(C)c2c(=O)[nH]c(-c3cc(S(=O)(=O)N4CCN(CC)CC4)ccc3OCC)nn12.O=C(O)CC(O)(CC(=O)O)C(=O)O [Vardenafil citrate, reference compound] | 5.88 | 5.88 | – |
| Cc1ccnc2c1NC(=O)c1cccnc1N2C1CC1 [Viramune] | 0.09 | – | – |
| O=C(O)c1cc2ccccc2c(Cc2c(O)c(C(=O)O)cc3ccccc23)c1O.OCCOCCN1CCN(C(c2ccccc2)c2ccc(Cl)cc2)CC1 [Vistaril Pamoate, reference compound] | – | -1.45 | – |
| CC(=O)CC(c1ccccc1)c1c(O)c2ccccc2oc1=O (centres unmarked) [WARFARIN SODIUM, reference compound] | – | -0.02 | – |
| CCCCC(=O)O[C@]1(C(=O)CO)CC[C@H]2[C@@H]3CCC4=CC(=O)CC[C@]4(C)[C@H]3[C@@H](O)C[C@@]21C [Westcort, reference compound] | – | -0.71 | – |
| CN(CCO)CC(O)Cn1cnc2c1c(=O)n(C)c(=O)n2C.O=C(O)c1cccnc1 (centres unmarked) [XANTHINOL NICOTINATE] | -0.46 | – | – |
| COc1cc(C(=O)NS(=O)(=O)c2ccccc2C)ccc1Cc1cn(C)c2ccc(NC(=O)OC3CCCC3)cc12 [ZAFIRLUKAST] | -0.67 | – | – |

| Compound | Z-SCORE [2] | Z-SCORE [3] | further results |
| --- | --- | --- | --- |
| C[C@H]1CCC[C@H](O)CCCCCc2cc(O)cc(O)c2C(=O)O1 [ZERANOL] | -0.91 | – | – |
| CC(c1cc2ccccc2s1)N(O)C(N)=O (centres unmarked) [ZILEUTON] | 1.28 | – | – |
| Cc1ccc(-c2nc3ccc(C)cn3c2CC(=O)N(C)C)cc1 [ZOLPIDEM TARTRATE] | -0.69 | – | – |
| COc1cc(N)c(Cl)cc1C(=O)NC1CN2CCC1CC2 (centres unmarked) [Zacopride] | -0.82 | – | – |
| CCN(C(C)=O)c1cccc(-c2ccnc3c(C#N)cnn23)c1 [Zaleplon] | -0.02 | – | – |
| CN(C)CCc1c[nH]c2ccc(C[C@H]3COC(=O)N3)cc12 [Zolmitriptan] | 0.57 | – | – |
| NS(=O)(=O)Cc1noc2ccccc12 [Zonisamide, reference compound] | – | -0.47 | – |
| CC[C@@H]1C=CC=CC[C@H](C)[C@@H](O)[C@@H](C)C(=O)[C@H](C)[C@@H](O)[C@H](C)C(=O)[C@H](C)[C@@H](O)[C@H](C)C=CC(=O)O[C@H]2[C@@H](C)[C@@H](CC1)O[C@@]1(CC[C@@H](C)[C@@H](C[C@H](C)O)O1)[C@@H]2C [[…]] | -0.54 | – | – |
| COC(=O)[C@H](c1ccccc1Cl)N1CCc2sccc2C1 [clopidogrel, reference compound] | – | -0.3 | – |
| O=c1c(-c2ccccc2)c1-c1ccccc1 [diphenylcyclopropenone] | – | – | Z-SCORE [1]: flagged |
| CC(C)n1c(/C=C/C(O)CC(O)CC(=O)O)c(-c2ccc(F)cc2)c2ccccc21 (centres unmarked) [fluvastatin, reference compound] | – | flagged | – |
| CC[C@H](C)C(=O)O[C@H]1CCC=C2C=C[C@H](C)[C@H](CC[C@@H]3C[C@@H](O)CC(=O)O3)[C@H]21 [mevastatin] | – | – | Z-SCORE [1]: flagged |
| CN1CCN2c3ncccc3Cc3ccccc3C2C1 (centres unmarked) [mirtazapine, reference compound] | -0.36 | 0.65 | – |
| C[C@]12CC[C@H]3[C@@H](CCC4=CC(=O)CC[C@@H]43)[C@@H]1CC[C@@H]2O [nandrolone] | -0.57 | – | – |
| CCOC(=O)[C@H](CCc1ccccc1)N[C@@H](C)C(=O)N1[C@H](C(=O)O)C[C@@H]2CCC[C@@H]21 [reference compound] | – | 4.3 | Z-SCORE [1]: -1.41 |
| Cc1cn([C@H]2C[C@H](N=[N+]=[N-])[C@@H](CO)O2)c(=O)[nH]c1=O [zidovudine, reference compound] | – | 0.17 | – |
| Benzeneacetic acid | -0.01 | – | – |
| MEDROXYPROGESTERONE | – | – | Z-SCORE [1]: -2.38 |
| S(-)-Timolol maleate [reference compound] | – | -0.49 | – |
